Here are results for 10 molecules from ChEMBL document CHEMBL1201862, “PubChem BioAssay data set” (2004).

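Tested at 5 concentrations; 48 h exposure; 96-well plates; endpoints linearly interpolated, else capped at highest concentration. At the GI50, growth is halved.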 Active and inactive are the calls of the source. No stated cut-off is given here; in the data, active = GI50 up to about 1.1 µM and inactive = higher. Starred links: 1 amine or outer side, 2 acyl side, 3 side chain; linkers in the order of their positions; H or OH if unused. Positions of bridges follow the written chain, without caps; N, C: chain ends. Non-standard residues stand in square brackets, D forms with d. Residues, ends and D or L forms follow the SMILES beside them. Chains are numbered I, II in the order given. ξ: configuration not given here. X42 = N=C(N)NCCC[C@H](NC(=N)CCCCCCC(=N)N[C@@H](CCCNC(=N)N)C(=O)[*:2])C(=O)[*:1]; Oic(3aξ,7aξ) = O=C(O)[C@@H]1CC2CCCCC2N1; Igl = N[C@H](C(=O)O)C1Cc2ccccc2C1; Hyp = O=C(O)[C@@H]1C[C@@H](O)CN1

Some test systems named below: 786-0; A498; DU-145; HCT-116; Hs-578T; IGROV-1; K562; KM12; LOX IMVI; MDA-MB-435; MDA-N; NCI/ADR-RES; OVCAR-5; PC-3; RPMI-8226; SF-268; SK-MEL-28; UACC-257; CCRF-CEM; SK-MEL-5.
Test in all cases: inhibition of tumour cell growth, NCI panel, 48 h

Turning to `c1ccc2sc(SCCSc3nc4ccccc4s3)nc2c1`, the GI50 in the experiment on 786-0, with A498, in the experiment with DU-145, with HCT-116, with Hs-578T and with IGROV-1 was > 100 µM (inactive) throughout. The GI50 in the experiment with K562 is > 100 µM (inactive); in the experiment on KM12, 52.4 µM (inactive); in the experiment on LOX IMVI, > 100 µM (inactive); in the experiment on MDA-MB-435 it was > 100 µM (inactive); in the experiment with MDA-N, > 100 µM (inactive); in the experiment with NCI/ADR-RES, > 100 µM (inactive). Further, the GI50 in the experiment on OVCAR-5, with PC-3, with RPMI-8226, in the experiment on SF-268, in the experiment with SK-MEL-28 and with UACC-257 was > 100 µM (inactive) in each case.
Regarding `CCCC(=O)NC1CCc2cc(OC)c(OC)c(OC)c2-c2ccc(OC)c(=O)cc21` (configuration not stated), the GI50 was 0.000652 µM (active) with 786-0; 0.00807 µM (active) in the experiment on A498; 0.00028 µM (active) in the experiment with CCRF-CEM; 0.00117 µM (active) in the experiment with DU-145; 0.000361 µM (active) with HCT-116; 0.000237 µM (active) in the experiment with Hs-578T. Also, the GI50 is 0.000828 µM (active) in the experiment with IGROV-1; 0.00041 µM (active) in the experiment with K562; 0.000449 µM (active) in the experiment on KM12; 0.00045 µM (active) in the experiment on LOX IMVI; 0.000296 µM (active) with MDA-MB-435; 0.000335 µM (active) in the experiment on MDA-N. For the same molecule, the GI50 in the experiment on NCI/ADR-RES was 0.118 µM (active); with OVCAR-5 it was 0.00312 µM (active); with PC-3 it was 0.000731 µM (active); in the experiment on RPMI-8226, 0.01 µM (active); with SF-268, 0.00157 µM (active); with SK-MEL-28, 0.01 µM (active). Moreover, in the experiment with SK-MEL-5, the GI50 was 0.000356 µM (active).
In the case of `Cn1c(CO)ccc1-c1ccc(-c2ccc[se]2)[se]1`, the GI50 with 786-0 was 29.1 µM (inactive); with A498, 0.0349 µM (active); in the experiment on CCRF-CEM it was 23.1 µM (inactive); in the experiment on DU-145 it was 17.7 µM (inactive); in the experiment on Hs-578T, 55 µM (inactive); with IGROV-1 it was 0.0384 µM (active). Also, the GI50 with K562 is 0.449 µM (active); in the experiment on KM12, 19.8 µM (inactive); with LOX IMVI it was 47.9 µM (inactive); in the experiment on MDA-MB-435, 12.6 µM (inactive); in the experiment on MDA-N, 15.5 µM (inactive); in the experiment with NCI/ADR-RES, 32.7 µM (inactive). For the same molecule, the GI50 in the experiment with PC-3 was > 90.4 µM (inactive); in the experiment with RPMI-8226 it was 20.9 µM (inactive); in the experiment on SF-268 it was 56.9 µM (inactive); in the experiment on SK-MEL-28, > 49.5 µM (inactive); in the experiment on SK-MEL-5, 29.8 µM (inactive).
With `O=C(c1ccccc1)N1N=C(C(F)(F)F)CC1(O)C(F)(F)F` (configuration not stated), the GI50 in the experiment on 786-0, in the experiment on A498, in the experiment on CCRF-CEM, in the experiment with DU-145, with HCT-116 and with Hs-578T was > 100 µM (inactive) each time. Besides, the GI50 in the experiment on K562, in the experiment with KM12, in the experiment on LOX IMVI, in the experiment with MDA-MB-435, in the experiment with MDA-N and in the experiment with NCI/ADR-RES was > 100 µM (inactive) throughout. The GI50 with OVCAR-5, in the experiment with PC-3, in the experiment on RPMI-8226, in the experiment on SF-268, with SK-MEL-28 and in the experiment on UACC-257 was > 100 µM (inactive) each time.
`CC(=NNC(=S)Nc1ccccc1)c1cccc(C(C)=NNC(=S)Nc2ccccc2)n1`: the GI50 in the experiment with 786-0 is 1.75 µM (inactive); in the experiment with A498 it was 7.55 µM (inactive); with CCRF-CEM it was 1.74 µM (inactive); in the experiment with DU-145 it was > 20.1 µM (inactive); with HCT-116, 3.32 µM (inactive); with Hs-578T it was > 37.8 µM (inactive). In addition, the GI50 was 2.08 µM (inactive) in the experiment on IGROV-1; 3.04 µM (inactive) in the experiment on K562; 3.38 µM (inactive) in the experiment on KM12; 2.24 µM (inactive) in the experiment on LOX IMVI; 8.32 µM (inactive) in the experiment on MDA-MB-435; 14.1 µM (inactive) with MDA-N. Further, the GI50 in the experiment with NCI/ADR-RES was 1.61 µM (inactive); in the experiment with OVCAR-5, > 22 µM (inactive); in the experiment with PC-3, 5.21 µM (inactive); in the experiment with RPMI-8226, 2.83 µM (inactive); in the experiment on SK-MEL-28, > 100 µM (inactive); in the experiment with SK-MEL-5 it was 2.64 µM (inactive). In addition, the GI50 in the experiment on UACC-257 was 8.83 µM (inactive).
In the case of `Cc1ccc(C2(N3CCOCC3)OC(C)(C)c3cccc4cccc2c34)cc1` (configuration not stated), the GI50 in the experiment on 786-0 was 17.3 µM (inactive); with A498, 17.7 µM (inactive); with CCRF-CEM it was 22.6 µM (inactive); with DU-145, 18 µM (inactive); in the experiment on HCT-116, 17.1 µM (inactive); with Hs-578T, 20.9 µM (inactive). Moreover, the GI50 in the experiment on IGROV-1 was 17.9 µM (inactive); in the experiment with K562 it was 30.2 µM (inactive); in the experiment with KM12, 21.1 µM (inactive); in the experiment on LOX IMVI, 16.5 µM (inactive); with MDA-MB-435, 16.9 µM (inactive); with MDA-N, 17.9 µM (inactive). Moreover, the GI50 is 15.7 µM (inactive) in the experiment on NCI/ADR-RES; 15.8 µM (inactive) with OVCAR-5; 16.5 µM (inactive) in the experiment with PC-3; 16.2 µM (inactive) in the experiment on RPMI-8226; 14.4 µM (inactive) in the experiment with SF-268; 18.6 µM (inactive) in the experiment with SK-MEL-5. Further, in the experiment with UACC-257, the GI50 was 18 µM (inactive).
With `O=C(c1ccc(Cl)c(Cl)c1)N(Cc1cccnc1)C(=S)N(Cc1cccnc1)C(=O)c1ccc(Cl)c(Cl)c1`, the GI50 in the experiment with 786-0 is 20.4 µM (inactive); in the experiment with A498, 33.9 µM (inactive); with CCRF-CEM, 94 µM (inactive); in the experiment on DU-145, 33.2 µM (inactive); in the experiment with HCT-116, 25.2 µM (inactive); with Hs-578T it was 40.6 µM (inactive). In addition, the GI50 in the experiment with K562 is 30.3 µM (inactive); in the experiment on KM12 it was 28.1 µM (inactive); with LOX IMVI, 30.7 µM (inactive); in the experiment on MDA-MB-435 it was 62.5 µM (inactive); with MDA-N, 23.9 µM (inactive); in the experiment with NCI/ADR-RES, 31.3 µM (inactive). Besides, the GI50 in the experiment on OVCAR-5 was 29.2 µM (inactive); in the experiment with PC-3 it was 22.1 µM (inactive); in the experiment with RPMI-8226, 5.5 µM (inactive); with SF-268, 36.1 µM (inactive); with SK-MEL-28 it was 52.5 µM (inactive); in the experiment on SK-MEL-5 it was 27.7 µM (inactive). Further, the GI50 with UACC-257 is 24.9 µM (inactive).
For the molecule `O=c1[nH]c2ccc(Cl)cc2o1`, the GI50 with 786-0, in the experiment on A498, with CCRF-CEM, in the experiment on DU-145, with HCT-116 and in the experiment on Hs-578T was > 100 µM (inactive) each time. Besides, the GI50 with IGROV-1, in the experiment on K562, with KM12, with LOX IMVI, in the experiment on MDA-MB-435 and in the experiment with MDA-N was > 100 µM (inactive) throughout. The GI50 with NCI/ADR-RES, in the experiment with OVCAR-5, with PC-3, with RPMI-8226, with SF-268 and with SK-MEL-5 was > 100 µM (inactive) each time. Further, in the experiment on UACC-257, the GI50 was > 100 µM (inactive).
Consider `OC(CC1CCCCN1)c1ccc2c(c1)oc1ccccc12` (configuration not stated), for which the GI50 in the experiment with 786-0 was > 100 µM (inactive); with A498, 23.4 µM (inactive); in the experiment with CCRF-CEM it was 33.3 µM (inactive); in the experiment on DU-145 it was > 100 µM (inactive); in the experiment on HCT-116 it was 85.3 µM (inactive); with Hs-578T, 87.7 µM (inactive). Also, the GI50 was 55.6 µM (inactive) with IGROV-1; 39.5 µM (inactive) with K562; > 100 µM (inactive) in the experiment with KM12; 56 µM (inactive) in the experiment on LOX IMVI; 42.7 µM (inactive) in the experiment on MDA-MB-435; 40.8 µM (inactive) in the experiment on MDA-N. Also, the GI50 in the experiment with NCI/ADR-RES is > 100 µM (inactive); in the experiment with OVCAR-5, 50.1 µM (inactive); with PC-3 it was 71 µM (inactive); with RPMI-8226, 46.1 µM (inactive); in the experiment with SF-268, > 100 µM (inactive); in the experiment with SK-MEL-28, 34 µM (inactive). The values for the GI50 in the experiment on SK-MEL-5 and with UACC-257 were 17.8 µM (inactive) and 31 µM (inactive), respectively.
In the case of `N=C(N)NCCC[C@H](NC(=O)[C@@H]1CC2CCCCC2N1C(=O)[C@@H](NC(=O)[C@H](CO)NC(=O)[C@@H](NC(=O)CNC(=O)[C@@H]1CCCN1C(=O)[C@H](CCCNC(=N)N)NC(=O)[C@H](CCCNC(=N)N)NC(=N)CCCCCCC(=N)N[C@@H](CCCNC(=N)N)C(=O)N[C@@H](CCCNC(=N)N)C(=O)N1CCC[C@H]1C(=O)N1C[C@H](O)C[C@H]1C(=O)NCC(=O)N[C@H](C(=O)N[C@@H](CO)C(=O)N[C@H](C(=O)N1C2CCCCC2C[C@H]1C(=O)N[C@@H](CCCNC(=N)N)C(=O)O)C1Cc2ccccc2C1)C1Cc2ccccc2C1)C1Cc2ccccc2C1)C1Cc2ccccc2C1)C(=O)O` (some centres not stated) (I: RP[Hyp]G[Igl]S[Igl][Oic(3aξ,7aξ)]R-OH / II: RPG[Igl]S[Igl][Oic(3aξ,7aξ)]R-OH; linker I:N-II:N via X42), the GI50 was 2.99 µM (inactive) in the experiment with 786-0; 3.11 µM (inactive) with CCRF-CEM; 1.64 µM (inactive) with DU-145; 4.38 µM (inactive) in the experiment with HCT-116; 2.91 µM (inactive) with Hs-578T; 2.44 µM (inactive) in the experiment on IGROV-1. In addition, the GI50 in the experiment with K562 was 0.993 µM (active); in the experiment with KM12, 2.07 µM (inactive); in the experiment with LOX IMVI, 2.24 µM (inactive); with MDA-MB-435 it was 1.99 µM (inactive); in the experiment on MDA-N it was 2.08 µM (inactive); with NCI/ADR-RES, 2.9 µM (inactive). Moreover, the GI50 with OVCAR-5 is 3.48 µM (inactive); in the experiment on PC-3, 1.62 µM (inactive); in the experiment with RPMI-8226, 2.31 µM (inactive); with SF-268, 1.92 µM (inactive); with SK-MEL-28, 2.01 µM (inactive); in the experiment on SK-MEL-5 it was 1.73 µM (inactive). For the same molecule, the GI50 in the experiment on UACC-257 was 4.15 µM (inactive).
